Results taken from ChEMBL document CHEMBL4257522, “Synthesis and preliminary anti-inflammatory and anti-bacterial evaluation of some diflunisal aza-analogs” (Medchemcomm, 2018).
Activity calls are given as the source filed them. The rule behind the calls is not given here.

Assays:
Macrophage cell line [1] = assay: Antiinflammatory activity in human PBMC-differentiated macrophages assessed as inhibition of LPS-induced TNFalpha production at 0.01 to 10 uM measured after 24 hrs by ELISA; type: functional, cell-based
Macrophage cell line [2] = assay: Antiinflammatory activity in human PBMC-differentiated macrophages assessed as inhibition of LPS-induced IL-8 production at 0.01 to 10 uM measured after 24 hrs by ELISA; type: functional, cell-based
Macrophage cell line [3] = assay: Antiinflammatory activity in human PBMC-differentiated macrophages assessed as inhibition of LPS-induced IL-1beta production at 0.01 to 10 uM measured after 24 hrs by ELISA; type: functional, cell-based
Klebsiella pneumoniae = assay: Toxicity in Klebsiella pneumoniae ATCC 13883 up to 32 uM measured after 16 hrs; type: organism-based
Pseudomonas aeruginosa = assay: Toxicity in Pseudomonas aeruginosa ATCC BAA-2108 up to 32 uM measured after 16 hrs; type: organism-based; conditions: in vitro
Staphylococcus aureus [4] = assay: Potentiation of geneticin-induced antibacterial activity against Staphylococcus aureus ATCC 33592 assessed as minimum modulatory concentration up to 32 uM measured after 16 hrs in presence of MIC/4 geneticin; type: functional; conditions: ATCC 33592, 16 h, read-out: MEC
Staphylococcus aureus [5] = assay: Potentiation of ciprofloxacin-induced antibacterial activity against Staphylococcus aureus ATCC 33592 assessed as minimum modulatory concentration up to 32 uM measured after 16 hrs in presence of MIC/4 ciprofloxacin; type: functional; conditions: ATCC 33592, 16 h, read-out: MEC
Staphylococcus aureus [6] = assay: Potentiation of erythromycin-induced antibacterial activity against Staphylococcus aureus ATCC 33592 assessed as minimum modulatory concentration up to 32 uM measured after 16 hrs in presence of MIC/4 erythromycin; type: functional; conditions: ATCC 33592, 16 h, read-out: MEC
Streptococcus pyogenes [7] = assay: Potentiation of geneticin-induced antibacterial activity against Streptococcus pyogenes ATCC 14289 assessed as minimum modulatory concentration up to 32 uM measured after 16 hrs in presence of MIC/4 geneticin; type: functional; conditions: ATCC 14289, 16 h, read-out: MEC
Streptococcus pyogenes [8] = assay: Potentiation of erythromycin-induced antibacterial activity against Streptococcus pyogenes ATCC 14289 assessed as minimum modulatory concentration up to 32 uM measured after 16 hrs in presence of MIC/4 erythromycin; type: functional; conditions: ATCC 14289, 16 h, read-out: MEC
Enterococcus faecium = assay: Potentiation of methicillin-induced antibacterial activity against Enterococcus faecium ATCC 700221 assessed as minimum modulatory concentration up to 32 uM measured after 16 hrs in presence of MIC/4 methicillin; type: functional; conditions: ATCC 700221, 16 h, read-out: MEC
Macrophage cell line [9] = assay: Antiinflammatory activity in human PBMC-differentiated macrophages assessed as lowest concentration required to show at least 25% inhibition of LPS-induced prostaglandin production measured after 24 hrs by ELISA; type: functional
Macrophage cell line [10] = assay: Antiinflammatory activity in human PBMC-differentiated macrophages assessed as lowest concentration required to show at least 25% inhibition of LPS-induced TNFalpha production measured after 24 hrs by ELISA; type: functional
Macrophage cell line [11] = assay: Antiinflammatory activity in human PBMC-differentiated macrophages assessed as lowest concentration required to show at least 25% inhibition of LPS-induced IL-8 production measured after 24 hrs by ELISA; type: functional
Macrophage cell line [12] = assay: Antiinflammatory activity in human PBMC-differentiated macrophages assessed as lowest concentration required to show at least 25% inhibition of LPS-induced IL-1beta production measured after 24 hrs by ELISA; type: functional

Row | SMILES | inhibition (Macrophage cell line [1]) | inhibition (Macrophage cell line [2]) | inhibition (Macrophage cell line [3]) | Activity (Klebsiella pneumoniae) | Activity (Pseudomonas aeruginosa) | minimal effective concentration (Staphylococcus aureus [4]) | minimal effective concentration (Staphylococcus aureus [5]) | minimal effective concentration (Staphylococcus aureus [6]) | minimal effective concentration (Streptococcus pyogenes [7]) | minimal effective concentration (Streptococcus pyogenes [8]) | minimal effective concentration (Enterococcus faecium) | Activity (Macrophage cell line [9]) | Activity (Macrophage cell line [10]) | Activity (Macrophage cell line [11]) | Activity (Macrophage cell line [12])
1 | C[n+]1ccc(C(=O)[O-])c(O)c1Cc1ccccc1 | inactive | inactive | inactive | Non-Toxic | Non-Toxic | > 32 µM | > 32 µM | > 32 µM | > 32 µM | > 32 µM | > 32 µM | – | – | – | –
2 | COc1cccc(-c2cc(C(=O)O)c(O)cn2)c1 | inactive | inactive | inactive | Non-Toxic | Non-Toxic | > 32 µM | > 32 µM | > 32 µM | > 32 µM | > 32 µM | 16 µM | – | – | – | –
3 | C[n+]1cc(O)c(C(=O)[O-])cc1-c1ccccc1 | inactive | inactive | inactive | Non-Toxic | Non-Toxic | > 32 µM | > 32 µM | > 32 µM | > 32 µM | > 32 µM | > 32 µM | – | – | – | –
4 | O=C(O)c1cc(-c2ccc(F)cc2F)ccc1O [DIFLUNISAL] | inactive | inactive | inactive | Non-Toxic | Non-Toxic | > 32 µM | > 32 µM | > 32 µM | > 32 µM | > 32 µM | 16 µM | 0.1 µM | – | – | –
5 | O=C(O)c1cc(O)cnc1-c1ccccc1 | – | – | – | Non-Toxic | Non-Toxic | 16 µM | > 32 µM | 4 µM | 2 µM | 4 µM | 2 µM | – | 10 µM | 10 µM | 10 µM
6 | O=C(O)c1cc(-c2ccc(F)cc2F)ncc1O | – | – | – | Non-Toxic | Non-Toxic | 2 µM | 16 µM | 4 µM | 8 µM | 4 µM | 0.25 µM | 10 µM | 1 µM | 1 µM | 1 µM
7 | O=C(O)c1cc(-c2ccccc2)nc(-c2ccccc2)c1O | – | inactive | – | Non-Toxic | Non-Toxic | 8 µM | 16 µM | 2 µM | 4 µM | 4 µM | 2 µM | 10 µM | 10 µM | – | 10 µM
8 | O=C(O)c1cc(-c2ccccc2)ncc1O | inactive | inactive | inactive | Non-Toxic | Non-Toxic | > 32 µM | 16 µM | > 32 µM | 16 µM | > 32 µM | > 32 µM | – | – | – | –
9 | O=C(O)c1cnc(-c2ccccc2)c(O)c1 | inactive | inactive | inactive | Non-Toxic | Non-Toxic | 2 µM | > 32 µM | 2 µM | 8 µM | 4 µM | 0.5 µM | – | – | – | –
10 | O=C(O)c1cnc2c(F)cc(F)cc2c1O | – | – | – | Non-Toxic | Non-Toxic | 4 µM | 16 µM | 1 µM | 4 µM | 8 µM | 0.25 µM | 10 µM | 1 µM | 10 µM | 1 µM
11 | O=C(O)c1cc(O)c(-c2ccccc2)nc1-c1ccccc1 | – | – | – | Non-Toxic | Non-Toxic | 8 µM | 16 µM | 8 µM | 2 µM | 8 µM | 1 µM | – | 10 µM | 10 µM | 10 µM
12 | O=C(O)c1ccnc(-c2ccccc2)c1O | – | – | – | Non-Toxic | Non-Toxic | 0.5 µM | 16 µM | 0.25 µM | 2 µM | 2 µM | 1 µM | – | 10 µM | 10 µM | 10 µM
13 | O=C(O)c1ccnc(Cc2ccccc2)c1O | inactive | inactive | inactive | Non-Toxic | Non-Toxic | > 32 µM | > 32 µM | > 32 µM | > 32 µM | > 32 µM | > 32 µM | – | – | – | –
14 | Cc1nc(-c2ccccc2)cc(C(=O)O)c1O | inactive | inactive | inactive | Non-Toxic | Non-Toxic | 16 µM | > 32 µM | > 32 µM | > 32 µM | > 32 µM | > 32 µM | – | – | – | –
15 | Cc1nc(-c2ccccc2)c(O)cc1C(=O)O | – | inactive | – | Non-Toxic | Non-Toxic | 4 µM | 16 µM | 4 µM | 2 µM | 4 µM | 0.5 µM | – | 10 µM | – | 10 µM
16 | COc1cccc(-c2cc(C(=O)[O-])c(O)c[n+]2C)c1 | inactive | inactive | inactive | Non-Toxic | Non-Toxic | > 32 µM | > 32 µM | > 32 µM | > 32 µM | > 32 µM | > 32 µM | – | – | – | –
17 | Cc1cc(C(=O)O)c(O)c(Cc2ccccc2)n1 | inactive | inactive | inactive | Non-Toxic | Non-Toxic | > 32 µM | > 32 µM | > 32 µM | > 32 µM | > 32 µM | > 32 µM | – | – | – | –
